Among the data in patent US10457654B2 (GENENTECH, INC., priority 2017, dated 2019) are IC50 values, retold here.

Each structure is given as a SMILES string. pIC50: −log10 of the molar value. Counter-ions that a name gives are not always drawn.

Assay [1] concerns the target T1, hNav1.7 (Homo sapiens (Human), UniProt Q15858). Nature of the assay: Patch voltage clamp electrophysiology assay (EP), Syncropatch 384PE, CHO cells expressing Nav1.7. The following applies: holding potential -50 mV; […] compound incubation; read-out: EP_SP hNav1.7 (Ex. 243B) IC50. It counts as cell-based. The method, boiled down: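 Automated whole-cell patch clamp on CHO cells stably expressing human Nav1.7, CsCl/EGTA internal and NMDG/80 mM Na+ external (pH 7.4). From −50 mV holding, −10 mV step, 20 ms recovery at −150 mV, then second −10 mV pulse where block is measured; inhibition after 7.5 min compound incubation.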
Target sequence in this assay (Q15858 other isoform, or with tags, fused parts or gaps): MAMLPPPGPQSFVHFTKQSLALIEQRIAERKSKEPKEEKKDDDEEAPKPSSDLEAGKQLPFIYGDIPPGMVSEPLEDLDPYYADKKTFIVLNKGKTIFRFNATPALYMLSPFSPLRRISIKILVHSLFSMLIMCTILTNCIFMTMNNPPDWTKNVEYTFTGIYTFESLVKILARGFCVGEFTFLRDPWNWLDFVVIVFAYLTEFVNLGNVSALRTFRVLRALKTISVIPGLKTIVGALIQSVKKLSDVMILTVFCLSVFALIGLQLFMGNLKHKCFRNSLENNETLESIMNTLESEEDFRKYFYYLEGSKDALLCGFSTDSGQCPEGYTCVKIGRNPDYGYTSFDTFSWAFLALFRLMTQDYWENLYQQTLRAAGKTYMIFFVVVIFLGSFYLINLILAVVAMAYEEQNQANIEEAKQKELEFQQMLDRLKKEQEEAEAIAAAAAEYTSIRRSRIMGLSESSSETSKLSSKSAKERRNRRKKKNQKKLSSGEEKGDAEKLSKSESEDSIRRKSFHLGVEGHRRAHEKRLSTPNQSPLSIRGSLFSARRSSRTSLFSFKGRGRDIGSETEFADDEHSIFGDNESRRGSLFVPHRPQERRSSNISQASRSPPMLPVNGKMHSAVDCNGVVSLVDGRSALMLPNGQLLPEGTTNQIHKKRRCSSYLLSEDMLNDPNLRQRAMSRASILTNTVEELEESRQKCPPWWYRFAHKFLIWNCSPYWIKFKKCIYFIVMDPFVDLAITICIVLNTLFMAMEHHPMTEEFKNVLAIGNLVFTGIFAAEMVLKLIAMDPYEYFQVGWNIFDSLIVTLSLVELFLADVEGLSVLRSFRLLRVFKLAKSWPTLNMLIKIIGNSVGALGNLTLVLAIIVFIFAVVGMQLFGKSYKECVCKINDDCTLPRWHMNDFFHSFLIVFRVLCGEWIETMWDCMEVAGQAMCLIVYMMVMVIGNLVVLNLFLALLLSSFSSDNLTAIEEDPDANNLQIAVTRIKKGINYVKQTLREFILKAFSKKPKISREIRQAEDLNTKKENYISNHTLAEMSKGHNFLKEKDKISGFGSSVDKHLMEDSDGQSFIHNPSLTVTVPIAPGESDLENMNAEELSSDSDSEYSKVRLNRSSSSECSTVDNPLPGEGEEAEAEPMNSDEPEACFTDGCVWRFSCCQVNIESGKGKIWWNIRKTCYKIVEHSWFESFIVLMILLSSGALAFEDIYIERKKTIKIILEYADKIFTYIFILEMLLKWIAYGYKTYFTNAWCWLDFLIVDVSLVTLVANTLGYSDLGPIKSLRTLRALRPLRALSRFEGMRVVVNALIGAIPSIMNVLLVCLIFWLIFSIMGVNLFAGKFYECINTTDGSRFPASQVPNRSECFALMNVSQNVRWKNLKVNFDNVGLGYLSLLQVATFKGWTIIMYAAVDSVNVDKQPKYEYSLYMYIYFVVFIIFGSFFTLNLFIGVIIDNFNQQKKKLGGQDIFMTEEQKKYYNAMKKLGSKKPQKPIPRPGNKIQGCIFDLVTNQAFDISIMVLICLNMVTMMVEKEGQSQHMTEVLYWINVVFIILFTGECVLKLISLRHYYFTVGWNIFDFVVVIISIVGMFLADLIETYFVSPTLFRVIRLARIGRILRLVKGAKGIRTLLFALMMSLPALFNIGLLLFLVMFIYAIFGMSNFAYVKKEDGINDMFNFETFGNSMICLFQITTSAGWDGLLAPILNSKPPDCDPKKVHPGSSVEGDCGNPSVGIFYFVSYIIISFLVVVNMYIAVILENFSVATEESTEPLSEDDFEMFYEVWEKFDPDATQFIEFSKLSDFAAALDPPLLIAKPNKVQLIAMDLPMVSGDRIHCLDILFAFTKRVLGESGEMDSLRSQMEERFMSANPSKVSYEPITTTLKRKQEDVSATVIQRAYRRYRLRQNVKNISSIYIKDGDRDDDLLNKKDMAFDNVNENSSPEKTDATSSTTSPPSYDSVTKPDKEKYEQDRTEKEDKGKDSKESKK

The target in assay [2] is T1, hNav1.7. Nature of the assay: Tritiated compound binding to membranes from cells expressing hNav1.7 and the β1 subunit, modified protocol (LBA, Ex. 243B). The settings on record: 300 pM [3H]compound, room temperature, read-out: Nav1.7 LBA (Ex. 243B) IC50.
Target sequence in this assay (Q15858 whole entry, looked up): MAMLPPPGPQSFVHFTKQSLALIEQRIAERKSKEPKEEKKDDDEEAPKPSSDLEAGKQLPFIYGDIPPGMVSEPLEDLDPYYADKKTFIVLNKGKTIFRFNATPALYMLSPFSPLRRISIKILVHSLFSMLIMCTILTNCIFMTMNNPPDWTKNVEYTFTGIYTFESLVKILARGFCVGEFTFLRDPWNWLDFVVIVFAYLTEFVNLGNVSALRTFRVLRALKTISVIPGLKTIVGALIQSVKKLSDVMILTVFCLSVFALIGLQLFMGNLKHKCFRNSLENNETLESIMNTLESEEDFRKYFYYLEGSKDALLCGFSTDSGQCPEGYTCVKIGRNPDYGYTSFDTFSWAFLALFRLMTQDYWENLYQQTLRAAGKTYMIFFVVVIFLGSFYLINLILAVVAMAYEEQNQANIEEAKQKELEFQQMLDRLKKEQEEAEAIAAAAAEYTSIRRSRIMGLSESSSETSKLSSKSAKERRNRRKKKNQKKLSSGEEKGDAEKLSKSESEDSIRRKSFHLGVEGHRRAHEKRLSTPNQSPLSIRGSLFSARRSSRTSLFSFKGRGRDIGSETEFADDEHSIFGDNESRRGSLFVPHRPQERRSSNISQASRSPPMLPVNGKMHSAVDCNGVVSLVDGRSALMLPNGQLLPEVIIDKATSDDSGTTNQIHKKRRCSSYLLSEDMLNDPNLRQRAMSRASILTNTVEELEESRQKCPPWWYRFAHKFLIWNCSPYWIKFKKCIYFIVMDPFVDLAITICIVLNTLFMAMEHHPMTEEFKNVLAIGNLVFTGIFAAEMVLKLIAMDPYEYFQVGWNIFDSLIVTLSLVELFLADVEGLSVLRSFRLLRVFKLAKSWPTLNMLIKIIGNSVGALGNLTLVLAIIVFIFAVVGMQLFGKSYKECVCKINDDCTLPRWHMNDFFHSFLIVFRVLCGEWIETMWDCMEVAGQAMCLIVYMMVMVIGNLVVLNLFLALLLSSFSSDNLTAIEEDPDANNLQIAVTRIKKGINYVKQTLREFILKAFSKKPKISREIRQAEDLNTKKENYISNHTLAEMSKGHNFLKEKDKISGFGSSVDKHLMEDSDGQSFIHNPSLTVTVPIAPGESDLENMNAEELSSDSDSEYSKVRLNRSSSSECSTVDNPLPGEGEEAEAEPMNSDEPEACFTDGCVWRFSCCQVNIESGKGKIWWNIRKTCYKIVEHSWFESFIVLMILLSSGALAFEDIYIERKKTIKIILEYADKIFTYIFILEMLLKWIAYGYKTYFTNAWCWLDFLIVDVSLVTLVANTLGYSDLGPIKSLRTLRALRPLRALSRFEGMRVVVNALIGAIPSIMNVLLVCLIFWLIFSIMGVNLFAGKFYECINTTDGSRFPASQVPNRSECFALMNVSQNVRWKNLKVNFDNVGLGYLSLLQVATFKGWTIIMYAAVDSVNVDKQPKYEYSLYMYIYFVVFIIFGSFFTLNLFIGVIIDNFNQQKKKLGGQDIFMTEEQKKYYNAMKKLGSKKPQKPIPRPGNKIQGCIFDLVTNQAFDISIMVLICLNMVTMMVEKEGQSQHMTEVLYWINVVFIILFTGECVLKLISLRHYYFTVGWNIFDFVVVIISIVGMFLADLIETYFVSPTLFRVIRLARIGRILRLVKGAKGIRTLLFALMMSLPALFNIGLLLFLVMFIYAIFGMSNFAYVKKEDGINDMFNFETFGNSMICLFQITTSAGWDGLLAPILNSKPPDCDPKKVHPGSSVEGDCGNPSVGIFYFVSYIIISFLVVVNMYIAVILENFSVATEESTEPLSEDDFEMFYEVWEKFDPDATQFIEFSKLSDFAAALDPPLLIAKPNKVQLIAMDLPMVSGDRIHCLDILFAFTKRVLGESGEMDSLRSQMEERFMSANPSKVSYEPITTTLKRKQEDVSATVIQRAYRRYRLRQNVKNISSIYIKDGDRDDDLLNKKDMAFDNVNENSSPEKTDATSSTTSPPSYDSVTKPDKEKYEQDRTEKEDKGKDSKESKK
Target sequence in this assay (Q07699 whole entry partner, looked up): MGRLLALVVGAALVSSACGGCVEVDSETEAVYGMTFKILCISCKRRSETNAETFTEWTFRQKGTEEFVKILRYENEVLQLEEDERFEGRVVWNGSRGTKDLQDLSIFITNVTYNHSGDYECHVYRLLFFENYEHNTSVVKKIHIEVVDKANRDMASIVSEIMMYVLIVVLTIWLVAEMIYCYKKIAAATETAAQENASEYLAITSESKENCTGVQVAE

Take `CN(C)[C@H]1C[C@@H](c2cccc(C(F)(F)F)c2)CC[C@@H]1Nc1cc(F)c(S(=O)(=O)Nc2ccncn2)cc1O` [Example 240, 4-(((1S,2S,4S)-2-(Dimethylamino)-4-(3-(trifluoromethyl)phenyl)cyclohexyl)amino)-2-fluoro-5-hydroxy-N-(pyrimidin-4-yl)benzenesulfonamide formate]: the results for the pIC50 in assay [1] and in assay [2] were 8.54 and 7.82, respectively.
`CN(CCCF)[C@H]1CCCC[C@@H]1Nc1cc(F)c(S(=O)(=O)Nc2nccs2)cc1Cl` [Example 135, 5-chloro-2-fluoro-4-(((1S,2S)-2-((3-fluoropropyl)(methyl)amino)cyclohexyl)amino)-N-(thiazol-2-yl)benzenesulfonamide]: the pIC50 was 7.48 in assay [1] and 6.50 in assay [2].
For the compound `O=S(=O)(Nc1cccc(F)n1)c1cc(Cl)c(N[C@H]2CCCC[C@@H]2N2C[C@@H]3[C@@H](CO)[C@@H]3C2)cc1F` [Example 185], the negative logarithm of the IC50 (pIC50) in assay [1] was 7.44; in assay [2] it was 6.11.
In the case of `CN(C)[C@H]1C[C@H](c2cccc(C(F)(F)F)c2)CC[C@@H]1Nc1cc(F)c(S(=O)(=O)Nc2ccon2)cc1Cl` [Example 229, 5-chloro-4-(((1S,2S,4R)-2-(dimethylamino)-4-(3-(trifluoromethyl)phenyl)cyclohexyl)amino)-2-fluoro-N-(isoxazol-3-yl)benzenesulfonamide], the pIC50 in assay [1] is 8.08; in assay [2] it was 7.26.
Take `CN(CC(O)C(F)F)[C@H]1CCCC[C@@H]1Nc1cc(F)c(S(=O)(=O)Nc2nccs2)cc1Cl` (single isomer, unassigned) [Example 126]: the pIC50 was 8.03 in assay [1] and 7.06 in assay [2].
Turning to `CN(C)[C@H]1CCC(F)C[C@@H]1Nc1cc(F)c(S(=O)(=O)Nc2nccs2)cc1Cl` (stereo partly drawn) [Example 191, 5-chloro-4-(((1S,2S)-2-(dimethylamino)-5-fluorocyclohexyl)amino)-2-fluoro-N-(thiazol-2-yl)benzenesulfonamide formate], the pIC50 in assay [1] was 7.40; in assay [2], 6.11.
Taken in the same sequence, the figures for `O=S(=O)(Nc1ccncn1)c1cc(Cl)c(N[C@@H]2CCCC[C@H]2N2CC3C(C2)C3(F)F)cc1F` (stereo partly drawn) [Example 182, 5-chloro-4-(((1R,2R)-2-(6,6-difluoro-3-azabicyclo[3.1.0]hexan-3-yl)cyclohexyl)amino)-2-fluoro-N-(pyrimidin-4-yl)benzenesulfonamide] were 5.82 and 5.70.
For `CN[C@H]1C[C@@H](c2cccc(C(F)(F)F)c2)CC[C@@H]1Nc1cc(F)c(S(=O)(=O)Nc2ccncn2)cc1Cl` [Example 226, 5-Chloro-2-fluoro-4-(((1S,2S,4S)-2-(methylamino)-4-(3-(trifluoromethyl)phenyl)cyclohexyl)amino)-N-(pyrimidin-4-yl)benzenesulfonamide], the pIC50 in assay [1] is 8.98; in assay [2], 8.84.
`CN(C)[C@@H]1C[C@@H]2C[C@@H]2C[C@H]1Nc1cc(F)c(S(=O)(=O)Nc2nccs2)cc1Cl` [Example 215, 5-Chloro-4-(((1R,3R,4R,6S)-4-(dimethylamino)bicyclo[4.1.0]heptan-3-yl)amino)-2-fluoro-N-(thiazol-2-yl)benzenesulfonamide]: the figures for the pIC50 in assay [1] and in assay [2] were 6.54 and 5.70, respectively.
In the case of `CN(C)[C@H]1C[C@@H](c2cccc(C(F)(F)F)c2)CC[C@@H]1Nc1cc(F)c(S(=O)(=O)Nc2ccon2)cc1Cl` [Example 228, 5-chloro-4-(((1S,2S,4S)-2-(dimethylamino)-4-(3-(trifluoromethyl)phenyl)cyclohexyl)amino)-2-fluoro-N-(isoxazol-3-yl)benzenesulfonamide], the pIC50 in assay [1] is 9.07; in assay [2] it was 8.24.
Take `CN(C)[C@H]1CCC(c2cccc(C(F)(F)F)c2)C[C@@H]1Nc1cc(F)c(S(=O)(=O)Nc2ccncn2)cc1Cl` (stereo in doubt) [Example 120, 5-chloro-4-(((1S,2S,5R)-2-(dimethylamino)-5-(3-(trifluoromethyl)phenyl)cyclohexyl)amino)-2-fluoro-N-(pyrimidin-4-yl)benzenesulfonamide]: the values for the pIC50 in assay [1] and in assay [2] were 8.39 and 7.58, respectively.
Turning to `CN(CC(C)(C)O)[C@H]1CCCC[C@@H]1Nc1cc(F)c(S(=O)(=O)Nc2nccs2)cc1Cl` [Example 116, 5-Chloro-2-fluoro-4-(((1S,2S)-2-((2-hydroxy-2-methylpropyl)(methyl)amino)cyclohexyl)amino)-N-(thiazol-2-yl)benzenesulfonamide formate], the results for the pIC50 in assay [1] and in assay [2] were 7.74 and 6.51, respectively.
For `CN(C)[C@H]1C[C@@H](C(F)(F)F)CC[C@@H]1Nc1cc(F)c(S(=O)(=O)Nc2ccncn2)cc1Cl` [Example 112, 5-chloro-4-(((1S,2S,4S)-2-(dimethylamino)-4-(trifluoromethyl)cyclohexyl)amino)-2-fluoro-N-(pyrimidin-4-yl)benzenesulfonamide], the pIC50 is 7.82 in assay [1] and 6.64 in assay [2].
As for `CN(CC(O)C(F)F)[C@H]1CCCC[C@@H]1Nc1cc(F)c(S(=O)(=O)Nc2nccs2)cc1Cl` (single isomer, unassigned) [Example 127], the values for the pIC50 in assay [1] and in assay [2] were 8.18 and 7.21, respectively.
In the case of `CN(C)CC(=O)N(C)[C@H]1CCCC[C@@H]1Nc1cc(F)c(S(=O)(=O)Nc2nccs2)cc1Cl` [Example 167, N-((1S,2S)-2-((2-chloro-5-fluoro-4-(N-(thiazol-2-yl)sulfamoyl)phenyl)amino)cyclohexyl)-2-(dimethylamino)-N-methylacetamide], the pIC50 in assay [1] was 7.73; in assay [2], 7.04.
As for `CN(C)[C@H]1C[C@@H](c2cccc(C(F)(F)F)c2)CC[C@@H]1Nc1ccc(S(=O)(=O)Nc2ccncn2)c(F)c1` [Example 237, 4-(((1S,2S,4S)-2-(Dimethylamino)-4-(3-(trifluoromethyl)phenyl)cyclohexyl)amino)-2-fluoro-N-(pyrimidin-4-yl)benzenesulfonamide formate], the pIC50 in assay [1] is 8.97; in assay [2], 8.61.
Consider `CN(C)[C@@H]1CN(c2cccc(C(F)(F)F)c2)CC[C@H]1Nc1cc(F)c(S(=O)(=O)Nc2ccncn2)cc1Cl` [Example 234, 5-Chloro-4-(((3R,4R)-3-(dimethylamino)-1-(3-(trifluoromethyl)phenyl)piperidin-4-yl)amino)-2-fluoro-N-(pyrimidin-4-yl)benzenesulfonamide formate], for which the figures for the pIC50 in assay [1] and in assay [2] were 6.88 and 5.70, respectively.
Take `CN(C)[C@H]1C[C@@H](c2cccc(OC(F)(F)F)c2)CC[C@@H]1Nc1cc(F)c(S(=O)(=O)Nc2ccncn2)cc1Cl` [Example 225, 5-Chloro-4-(((1S,2S,4S)-2-(dimethylamino)-4-(3-(trifluoromethoxy)phenyl)cyclohexyl)amino)-2-fluoro-N-(pyrimidin-4-yl)benzenesulfonamide]: the negative logarithm of the IC50 (pIC50) in assay [1] and in assay [2] was 9.19 in each case.
For `N#C[C@@H]1CCCN([C@H]2CCCC[C@@H]2Nc2cc(F)c(S(=O)(=O)Nc3nccs3)cc2Cl)C1` [Example 176, 5-Chloro-4-(((1S,2S)-2-((R)-3-cyanopiperidin-1-yl)cyclohexyl)amino)-2-fluoro-N-(thiazol-2-yl)benzenesulfonamide], the pIC50 is 8.06 in assay [1] and 6.31 in assay [2].
`CN1CCC[C@@H]1C(=O)N(C)[C@H]1CCCC[C@@H]1Nc1cc(F)c(S(=O)(=O)Nc2nccs2)cc1Cl` [Example 204, (R)—N-((1S,2S)-2-((2-Chloro-5-fluoro-4-(N-(thiazol-2-yl)sulfamoyl)phenyl)amino)cyclohexyl)-N,1-dimethylpyrrolidine-2-carboxamide]: the pIC50 in assay [1] was 7.69; in assay [2], 6.51.
Consider `O=S(=O)(Nc1nccs1)c1cc(Cl)c(N[C@H]2CCCC[C@@H]2N2CCC(F)CC2)cc1F` [Example 113, 5-chloro-2-fluoro-4-(((1S,2S)-2-(4-fluoropiperidin-1-yl)cyclohexyl)amino)-N-(thiazol-2-yl)benzenesulfonamide], for which the pIC50 in assay [1] was 7.93; in assay [2], 6.73.
For `CN(C)[C@H]1C[C@@H]2[C@H](C[C@@H]1Nc1cc(F)c(S(=O)(=O)Nc3nccs3)cc1Cl)C2(Cl)Cl` [Example 194, 5-Chloro-4-(((1S,3S,4S,6R)-7,7-dichloro-4-(dimethylamino)bicyclo[4.1.0]heptan-3-yl)amino)-2-fluoro-N-(thiazol-2-yl)benzenesulfonamide formate], the pIC50 was 6.40 in assay [1] and 5.70 in assay [2].
In the case of `CN1CCC(N(C)[C@H]2CCCC[C@@H]2Nc2cc(F)c(S(=O)(=O)Nc3cccc(F)n3)cc2Cl)CC1` [Example 109, 5-chloro-2-fluoro-N-(6-fluoropyridin-2-yl)-4-(((1S,2S)-2-(methyl(1-methylpiperidin-4-yl)amino)cyclohexyl)amino)benzenesulfonamide], the pIC50 was 8.06 in assay [1] and 7.29 in assay [2].
For the compound `CN(C)[C@H]1CC(F)(F)CC[C@@H]1Nc1cc(F)c(S(=O)(=O)Nc2nccs2)cc1Cl` [Example 187, 5-chloro-4-(((1S,2S)-2-(dimethylamino)-4,4-difluorocyclohexyl)amino)-2-fluoro-N-(thiazol-2-yl)benzenesulfonamide formate], the figures for the pIC50 in assay [1] and in assay [2] were 8.12 and 6.11, respectively.
With `CN1CC(N(CC(F)(F)F)[C@H]2CCCC[C@@H]2Nc2cc(F)c(S(=O)(=O)Nc3nccs3)cc2Cl)C1` [Example 190, 5-Chloro-2-fluoro-4-(((1S,2S)-2-((1-methylazetidin-3-yl)(2,2,2-trifluoroethyl)amino)cyclohexyl)amino)-N-(thiazol-2-yl)benzenesulfonamide], the figures for the pIC50 in assay [1] and in assay [2] were 7.38 and 6.32, respectively.
